≈ marks a conversion by molar mass, not a printed value.
Columns and labels:
[1] = system: insecticide-resistant population of redlegged earth mite (H. destructor; RLEM); experiment: whole plant or invertebrate; details: for LC50: read-out: LC50 (95% CI); for difference between insecticide-susceptible and resistant populations in response (in words): P < 0.05 level
Procedure: (§1) The insecticide-susceptible H. destructor population tested in this bioassay was collected from burr medic (Medicago polymorpha) and barley grass (Hordeum leporinum) in Moulamein, NSW (−35.102, 144.026), a site with no known history of insecticide application. […] Mites were collected via suction using a Stihl SH55 blower vacuum, placed in plastic containers with paper towel and vegetation, and transported back to the laboratory, where they were stored at 4° C. until testing.
(§2) Serial dilutions were prepared for each insecticide (Table 9), with the addition of a non-ionic surfactant (Tween 20) at 0.01% to aid the spread of the insecticide and ensure even coating. […] Nine concentrations of bifenthrin were tested, ranging from 1×10^−5 to 10 times the field rate of 40 mL diluted in 100 L of water (100 mg a.i./L). Seven concentrations of omethoate were tested, ranging from 1×10^−5 to 10 times the field rate of 100 mL in 100 L of water (290 mg a.i./L).
(§3) Six vials were coated per concentration and were left to dry overnight. Control vials were treated in the same way, except water (with the addition of 0.01% Tween) was used. The next day, eight individual H. destructor were then placed into each vial along with 2-3 leaves of common vetch (Vicia sativa), which provided food and humidity. Vials were then sealed with a screw lid and placed in a controlled temperature cabinet at 18° C. After 24-hours exposure, mites were scored as alive (moving freely), incapacitated (inhibited movement), or dead (no movement over a 5 second period).
(§4) Dose-response curves were generated by plotting percentage mortality against log concentration. A series of logistic models were used to quantify the sensitivity of H. destructor to each chemical and to test whether any differences in sensitivity were present between the two populations. Logistic regression is well suited for the analysis of binary response data (e.g., dead/alive). Each model included chemical concentration and H. destructor population as fixed-effect predictors, which allowed testing for whether populations had average differences in mortality (i.e., model intercept) via F tests. It was then determined if populations had differences in mortality that were dependent on chemical concentration (i.e., differences in regression slopes) by comparing the inclusion of a population×concentration predictor (i.e., allowing slopes to vary between populations). […] The resulting LC50 values were used to quantify the level of insecticide resistance (resistance ratios) relative to the known insecticide-susceptible population. All analyses were conducted using R version 4.3.1 (R Development Core Team 2023).

[2] = system: insecticide-susceptible population of redlegged earth mite (H. destructor; RLEM); experiment: whole plant or invertebrate; details: Halotydeus destructor, 24 h; for LC50: read-out: LC50 (95% CI)
Procedure: as §1, §2, §3, §4

[3] = system: redlegged earth mite (H. destructor; RLEM); experiment: whole plant or invertebrate; details: for LC50: read-out: LC50 (95% CI)
Procedure: On the 14th of May 2022, H. destructor were collected from capeweed (Arctotheca calendula) in South Morang, Victoria (−37.625, 145.110), a site with no known history of insecticide application. Mites were collected via suction using a Stihl SH55 blower vacuum, placed in plastic containers with paper towel and vegetation, and transported back to the laboratory, where they were stored at 4° C. until testing.
Serial dilutions were prepared for each insecticide (Table 1), with the addition of a non-ionic surfactant (Tween 20) at 0.01% to aid the spread of the insecticide and ensure even coating. […] Nine concentrations of pyridaben ranging from the proposed field rate of 1480 mL diluted in 100 L of water (1998 mg a.i./L) to 1×10^−5 were serially diluted and tested along with a water control. Eight concentrations of omethoate, ranging from 10 times the field rate of 100 mL diluted in 100 L of water (290 mg a.i./L) to 1×10^−5, were tested along with a water control. Seven concentrations of bifenthrin, ranging from 10 times the field rate of 40 mL diluted in 100 L of water (100 mg a.i./L) to 1×10^−5, were tested along with a water control. For each insecticide concentration tested, approximately 10 mL of solution was poured into a 15 mL plastic vial and swirled to ensure a complete coating, with excess liquid removed. Six vials were coated per concentration and were left to dry overnight. Control vials were treated in the same way, except water (with the addition of 0.01% Tween) was used.
as §3, with “Approximately” for “Six vials were coated per concentration and were left to dry overnight. Control vials were treated in the same way, except water (with the addition of 0.01% Tween) was used. The next day,”
Dose-response curves were generated by plotting percentage mortality against log concentration. […] Logistic regression is well suited for the analysis of binary response data (e.g., dead/alive). All analyses were conducted using R version 3.3.1 (R Development Core Team 2022).

[4] = system: redlegged earth mite (H. destructor; RLEM); experiment: Field trial in canola, pre- or post-emergent control of RLEM (Example 5); assay type: in vivo, Halotydeus destructor; details: application timing B (early post-emergent, 1 to 2 leaf canola)
Procedure: A field trial was conducted in canola cv. Garrison, to evaluate fenpyroximate for control of redlegged earth mite (H. destructor; RLEM) as a pre- or post-emergent application. The trial was located at Beverley, Western Australia (−32.2248085, 117.0268493). The canola was sown on 13th June 2023. […] All treatments were applied using a hand boom fitted with flat fan nozzles in a spray volume of 100 L/ha.
The density of RLEM was assessed 33 days after the second application timing by counting the number of mites per plant.
(§5) All data was statistically analyzed using analysis of variance and Fisher's protected least significant different test (Fishers LSD). The level of significance for all tests was P<0.05.

[5] = system: couch mite (Aceria cynodoniensis); experiment: Field trial in Santa Ana couch turfgrass, control of couch mite (Example 3); assay type: in vivo; details: for Biomass and vigor (0-10), 42 DAA2 / Biomass and vigor (0-10), Pre-spray: 0 to 10 rating scale; for Biomass and vigor (0-10), 42 DAA2 / NDVI, 42 DAA2 / % Incidence mite damage, 42 DAA2: product rate mL/ha: Prophesy 500, Thumper 2000 (+ BS 1000 0.25% v/v); for Biomass and vigor (0-10), 42 DAA2 / NDVI, 42 DAA2: Fenpyroximate 50 SC 4000; for NDVI, 42 DAA2 / NDVI, Pre-spray: Greenseeker; for % Incidence mite damage, 42 DAA2: 42 days after second application, Fenpyroximate 50 SC 4000 (200 g ai/ha); for Biomass and vigor (0-10), Pre-spray / NDVI, Pre-spray / % Incidence mite damage, Pre-spray: Pre-spray (baseline); for % Incidence mite damage, Pre-spray: witches' broom
Procedure: A field trial was conducted in Santa Ana couch turfgrass, to evaluate fenpyroximate for control of couch mite (Aceria cynodoniensis). The trial was located at Terrey Hills Golf and Country Club, New South Wales (−33.668, 151.217). […] All treatments were applied using a hand boom fitted with XR11004 nozzles and in a spray volume of 430 L/ha.
The incidence of couch mite damage, to the terminal growth point (known as witches' broom) was assessed 42 days after the second application. Turf biomass and vigor were assessed at the same timing on a 0 to 10 rating scale, along with NDVI using a Greenseeker.
as §5

[6] = Halotydeus destructor, 24 h, read-out: % RLEM mortality, Resistant
[7] = read-out: % RLEM mortality, Susceptible
[8] = Halotydeus destructor, 24 h, read-out: % RLEM mortality

Molecule: Cc1c(COC(=O)[C@@H]2[C@H](/C=C(\Cl)C(F)(F)F)C2(C)C)cccc1-c1ccccc1 (racemic) [Bifenthrin]
- Resistance ratio [1]: 265.09
- mortality at 0.001 µg/mL [1, 6]: 4.4%
- mortality at 0.01 µg/mL [1, 6]: 9.3%
- mortality at 0.03 µg/mL [1, 6]: 5.8%
- mortality at 0.1 µg/mL [1, 6]: 22.3%
- mortality at 0.3 µg/mL [1, 6]: 44.6%
- mortality at 1 µg/mL [1, 6]: 48.9%
- mortality at 10 µg/mL [1, 6]: 70.9%
- mortality at 100 µg/mL [1, 6]: 59%
- mortality at 1000 µg/mL [1, 6]: 53.5%
- LC50 ([1]; Halotydeus destructor, 24 h): 14.1 µg/mL (≈ 33.2 µM)
- difference between insecticide-susceptible and resistant populations in response (in words) [1]: significant difference
- mortality at 0.001 µg/mL [2, 7]: 7%
- mortality at 0.01 µg/mL [2, 7]: 4.7%
- mortality at 0.03 µg/mL [2, 7]: 17.4%
- mortality at 0.1 µg/mL [2, 7]: 74.3%
- mortality at 0.3 µg/mL [2, 7]: 98.1%
- mortality at 1 µg/mL [2, 7]: 100%
- mortality at 10 µg/mL [2, 7]: 100%
- mortality at 100 µg/mL [2, 7]: 100%
- mortality at 1000 µg/mL [2, 7]: 100%
- LC50 [2]: 0.053 µg/mL (≈ 0.125 µM)
- mortality at 0.001 µg/mL [3, 8]: 0%
- mortality at 0.01 µg/mL [3, 8]: 0%
- mortality at 0.1 µg/mL [3, 8]: 64.9%
- mortality at 0.3 µg/mL [3, 8]: 98.7%
- mortality at 1 µg/mL [3, 8]: 100%
- mortality at 10 µg/mL [3, 8]: 100%
- mortality at 100 µg/mL [3, 8]: 100%
- LC50 ([3]; Halotydeus destructor, 24 h): 0.085 µg/mL (≈ 0.201 µM)

Molecule: CC(C)c1cc(Oc2ccccc2)cc(C(C)C)c1NC(=S)NC(C)(C)C [Diafenthiuron]
- % Control (33 DAA2) ([4]; product rate 400 mL/ha): 54%
- mortality at 0.03 µg/mL [1, 6]: 3.9%
- mortality at 0.3 µg/mL [1, 6]: 10.6%
- mortality at 3 µg/mL [1, 6]: 13.2%
- mortality at 30 µg/mL [1, 6]: 15.7%
- mortality at 300 µg/mL [1, 6]: 39.5%
- mortality at 3000 µg/mL [1, 6]: 75.5%
- mortality at 30000 µg/mL [1, 6]: 100%
- mortality at 90000 µg/mL [1, 6]: 100%
- difference between insecticide-susceptible and resistant populations in response (in words) [1]: significant population differences
- mortality at 0.03 µg/mL [2, 7]: 13.9%
- mortality at 0.3 µg/mL [2, 7]: 15.6%
- mortality at 3 µg/mL [2, 7]: 13%
- mortality at 30 µg/mL [2, 7]: 21.5%
- mortality at 300 µg/mL [2, 7]: 64.1%
- mortality at 3000 µg/mL [2, 7]: 100%
- mortality at 30000 µg/mL [2, 7]: 100%
- mortality at 90000 µg/mL [2, 7]: 100%

Molecule: CNC(=O)CSP(=O)(OC)OC [Omethoate]
- % Control (33 DAA2) ([4]; product rate 100 mL/ha): 74%
- mortality at 0.0029 µg/mL [1, 6]: 16.1%
- mortality at 0.029 µg/mL [1, 6]: 18.9%
- mortality at 0.29 µg/mL [1, 6]: 17.2%
- mortality at 2.9 µg/mL [1, 6]: 47.5%
- mortality at 29 µg/mL [1, 6]: 100%
- mortality at 290 µg/mL [1, 6]: 100%
- mortality at 2900 µg/mL [1, 6]: 100%
- LC50 ([1]; Halotydeus destructor, 24 h): 0.935 µg/mL (≈ 4.39 µM)
- difference between insecticide-susceptible and resistant populations in response (in words) [1]: no statistically significant difference
- mortality at 0.0029 µg/mL [2, 7]: 7.6%
- mortality at 0.029 µg/mL [2, 7]: 10.1%
- mortality at 0.29 µg/mL [2, 7]: 32.1%
- mortality at 2.9 µg/mL [2, 7]: 95.8%
- mortality at 29 µg/mL [2, 7]: 100%
- mortality at 290 µg/mL [2, 7]: 100%
- mortality at 2900 µg/mL [2, 7]: 100%
- LC50 [2]: 0.348 µg/mL (≈ 1.63 µM)
- mortality at 0.003 µg/mL [3, 8]: 0%
- mortality at 0.03 µg/mL [3, 8]: 2.8%
- mortality at 0.3 µg/mL [3, 8]: 11.7%
- mortality at 0.9 µg/mL [3, 8]: 55.3%
- mortality at 2.9 µg/mL [3, 8]: 98.1%
- mortality at 29 µg/mL [3, 8]: 100%
- mortality at 290 µg/mL [3, 8]: 100%
- mortality at 2900 µg/mL [3, 8]: 100%
- LC50 ([3]; Halotydeus destructor, 24 h): 0.681 µg/mL (≈ 3.19 µM)

Molecule: Clc1ccccc1-c1nnc(-c2ccccc2Cl)nn1 [Prophesy, Clofentezine]
- Biomass and vigor (0-10), 42 DAA2 [5]: 4.9
- NDVI, 42 DAA2 [5]: 0.64
- % Incidence mite damage, 42 DAA2 [5]: 52.0%
- Biomass and vigor (0-10), Pre-spray [5]: 4.0 a
- NDVI, Pre-spray [5]: 0.53 a
- % Incidence mite damage, Pre-spray [5]: 94.0 a %
- turf biomass and vigor and NDVI (in words) ([5]; versus untreated, P<0.05): also improved

Molecule: CC(C)(C)c1ccc(CSc2cnn(C(C)(C)C)c(=O)c2Cl)cc1 [Pyridaben]
- mortality even at the highest rates ([3]; 24 hours exposure, highest rates tested): less than 50%
- mortality at 0.02 µg/mL [3, 8]: 0%
- mortality at 0.2 µg/mL [3, 8]: 0%
- mortality at 2 µg/mL [3, 8]: 0%
- mortality at 20 µg/mL [3, 8]: 0%
- mortality at 60 µg/mL [3, 8]: 0%
- mortality at 200 µg/mL [3, 8]: 9%
- mortality at 599 µg/mL [3, 8]: 23.4%
- mortality at 999 µg/mL [3, 8]: 45.5%
- mortality at 1998 µg/mL [3, 8]: 27.5%
- efficacy against RLEM (in words) ([3]; laboratory bioassay, 24 hours exposure): not efficacious
- highest mortality observed ([3]; range of concentrations tested 0.01998-1998 mg a.i./L): 45%

Molecule: Abamectin [Thumper]
- Biomass and vigor (0-10), 42 DAA2 [5]: 4.4
- NDVI, 42 DAA2 [5]: 0.58
- % Incidence mite damage, 42 DAA2 [5]: 57.0%
- Biomass and vigor (0-10), Pre-spray [5]: 3.9 a
- NDVI, Pre-spray [5]: 0.52 a
- % Incidence mite damage, Pre-spray [5]: 95.3 a %

— US20260262641A1 (priority 2023, published 2026)
